According to patent US11116735B2, “Use of substituted benzylideneguanidine derivatives as synergists for polymyxin antibiotics” (GUANGZHOU INSIGHTER BIOTECHNOLOGY CO., LTD., priority 2015, dated 2021):
Several values for one entry are separate records, joined by “and”; a condition that tells them apart may be missing. Equal values may be shown once.

Experiments:
Shigella sp. 2D89 = test: MIC, resistance reversal by various concentrations of compound 3, Shigella sp. 2D89
Protocol: (§2) The compound 3 in this embodiment was in the form of a hydrochloride, i.e., the experiments were carried out with a hydrochloride of compound 3.
(§3) In vitro minimum inhibitory concentrations of colistin sulfate against the strains where the cultures respectively comprised various concentrations of compound 3 were also measured.

E. coli 2G-7 = test: MIC by doubling dilution, colistin sulfate-resistant E. coli 2G-7
Protocol: (§4) In vitro minimum inhibitory concentrations of colistin sulfate against the strains where the cultures respectively comprised 20.0 ppm of the substituted benzylideneguanidine derivatives were also measured.

cherry valley ducks = test: Combined application of compound 3 and colistin sulfate in duck feed; format: in vivo; conditions: 21-day experiment
Protocol: 800 1-day-aged cherry valley ducks were divided into 4 groups according to Table 10, 4 parallels in each group and 50 ducks in each parallel. For each group, colistin sulfate and/or compound 3 were added into the feed. The ducks were kept in cages and given ad libitum access to feed and water during a 21-day experiment. Synergy of compound 3 and colistin sulfate on the ducks in the weight gain and feed efficiency was observed from the result (see Table 11).

E. coli 2S-19 = test: MIC by doubling dilution, colistin sulfate-susceptible E. coli 2S-19; format: cell-based, Escherichia coli
[1] = system: fast-growing yellow feather broilers; test: Combined application of compound 3 and colistin sulfate in chicken feed; format: in vivo; conditions: 28-day experiment; for Average daily weight gain / Feed conversion ratio / Survival rate: broilers
Protocol: 800 1-day-aged fast-growing yellow feather broilers were divided into 4 groups, 4 parallels in each group and 50 broilers in each parallel. For each group, colistin sulfate and/or compound 3 were added into the feed. The chicken were kept in cages and given ad libitum access to feed and water during a 28-day experiment. Synergy of compound 3 and colistin sulfate on the chicken in the weight gain and feed efficiency was observed from the result (see Table 10).

[2] = system: various colistin sulfate-resistant Gram-negative bacteria; test: MIC by doubling dilution, summary over resistant species; conditions: compound 3 alone (hydrochloride)
Protocol: as §2, §3

weanling piglets [3] = test: Synergy of compound 3 and colistin sulfate in the feed for weanling piglets; format: in vivo, Duroc×Landrace×Large crossbred lean weanling piglets; conditions: for Average daily weight gain / Diarrhea rate / Feed conversion ratio: weanling piglets, ten days
Protocol: (§1) 120 28-day-aged Duroc×Landrace×Large crossbred lean weanling piglets similar in weight were divided into 12 groups, 10 piglets in each group. For each group, colistin sulfate and/or compound 3 were added into the antibiotic-free creep feed. The piglets were given ad libitum access to feed and water during the experiment. Weight gain, feed efficiency and diarrhea rate of each group within ten days were recorded.

Klebsiella sp. 4125 = test: MIC, resistance reversal by various concentrations of compound 3, Klebsiella sp. 4125
Protocol: as §2, §3

E. coli 5F-1 = test: MIC by doubling dilution, colistin sulfate-resistant E. coli 5F-1
Protocol: as §4

E. coli 3Y-9 = test: MIC by doubling dilution, colistin sulfate-susceptible E. coli 3Y-9; format: cell-based, Escherichia coli
E. coli 3B-24 = test: MIC by doubling dilution, colistin sulfate-susceptible E. coli 3B-24; format: cell-based, Escherichia coli
E. coli 5W-7 = test: MIC by doubling dilution, colistin sulfate-susceptible E. coli 5W-7; format: cell-based, Escherichia coli
P. aeruginosa E543 = test: MIC, resistance reversal by various concentrations of compound 3, P. aeruginosa E543
Protocol: as §2, §3

weanling piglets [4] = test: Compound 3 in various dosages and colistin sulfate in the feed for weanling piglets; format: in vivo, Duroc×Landrace×Large crossbred lean weanling piglets; conditions: for Average daily weight gain / Diarrhea rate / Feed conversion ratio: ten days
Protocol: as §1, with “90” for “120”, “9” for “12”, “and/or various dosages of” for “and/or”

E. coli 4D-6 = test: MIC by doubling dilution, colistin sulfate-resistant E. coli 4D-6
Protocol: as §4

[5] = colistin sulfate with 0 ppm compound 3, or compound 3 (hydrochloride) in the absence of colistin sulfate
[6] = 20 ppm colistin sulfate and 50 ppm compound 3 in feed (Test)
[7] = 20 ppm colistin sulfate and 150 ppm compound 3 in creep feed (Test, groups 10-12)
[8] = 150 ppm in creep feed, no colistin sulfate (Control 2, groups 7-9)
[9] = 20 ppm colistin sulfate + 10 ppm compound 3 in creep feed (Test 1)
[10] = 20 ppm colistin sulfate + 25 ppm compound 3 in creep feed (Test 2)
[11] = 20 ppm colistin sulfate + 50 ppm compound 3 in creep feed (Test 3)
[12] = 20 ppm colistin sulfate + 100 ppm compound 3 in creep feed (Test 4)
[13] = 20 ppm colistin sulfate + 200 ppm compound 3 in creep feed (Test 5)
[14] = 20 ppm colistin sulfate + 500 ppm compound 3 in creep feed (Test 6)
[15] = only 200 ppm compound 3 in creep feed, no colistin sulfate

With `CC(C)Oc1ccc(C=NN=C(N)NN=Cc2ccc(OC(C)C)cc2)cc1` [Compound 3] the “In vitro MIC of colistin sulfate in the presence of compound 3” value (“In vitro MIC … of compound 3” below) (Shigella sp. 2D89; 5 ppm compound 3) was 16.00 ppm, the “In vitro MIC … of compound 3” value (Shigella sp. 2D89; 10 ppm compound 3) was 2.00 ppm and the “In vitro MIC … of compound 3” value (Shigella sp. 2D89; 20 ppm compound 3) was 1.00 ppm. For the same compound, the “In vitro MIC … of compound 3” value (Shigella sp. 2D89; 40 ppm compound 3) was 0.25 ppm, the “In vitro MIC … of compound 3” value (Shigella sp. 2D89; 80 ppm compound 3) was 0.25 ppm and the “In vitro MIC of the substance alone” value (Shigella sp. 2D89; [5]) was over 800 ppm. For the same compound, the “In vitro minimum inhibitory concentration (MIC) of the substance alone” value (E. coli 2G-7; E. coli 2G-7, colistin sulfate-resistant, substance alone, derivatives as hydrochlorides) was over 800 ppm, the “In vitro MIC of colistin sulfate in the presence of the substituted benzylideneguanidine derivative” value (E. coli 2G-7; E. coli 2G-7, resistant, culture comprised 20.0 ppm of the derivative (hydrochloride)) was 1.0 ppm and the “Average daily weight gain” value (cherry valley ducks; [6]) was 55.6 g. For the same compound, the Feed conversion ratio (cherry valley ducks; [6]) was 1.817, the Survival rate (cherry valley ducks; [6]) was 100% and the “Synergy with colistin sulfate in weight gain and feed efficiency” value (cherry valley ducks) was “Synergy”. For the same compound, the “Average daily weight gain” value (cherry valley ducks; 100 ppm compound 3 in feed) was 50.5 g, the Feed conversion ratio (cherry valley ducks; 100 ppm compound 3 in feed) was 1.926 and the Survival rate (cherry valley ducks; 100 ppm compound 3 in feed) was 100%. For the same compound, the “In vitro minimum inhibitory concentration (MIC) of the substance alone” value (E. coli 2S-19; E. coli 2S-19, colistin sulfate-susceptible, substance alone, derivatives as hydrochlorides) was over 800 ppm, the “In vitro MIC of colistin sulfate in the presence of the substituted benzylideneguanidine derivative” value (E. coli 2S-19; E. coli 2S-19, culture comprised 20.0 ppm of the derivative (hydrochloride), colistin sulfate serially diluted) was 0.50 ppm and the “Average daily weight gain” value [1, 6] was 44.6 g. For the same compound, the Feed conversion ratio [1, 6] was 1.855, the Survival rate [1, 6] was 100% and the “Average daily weight gain” value ([1]; 100 ppm compound 3 in feed) was 40.2 g. The Feed conversion ratio ([1]; 100 ppm compound 3 in feed) was 1.943, the Survival rate ([1]; 100 ppm compound 3 in feed) was 100% and the “Synergy with colistin sulfate in weight gain and feed efficiency” value ([1]; chicken) was “Synergy”. The “Inhibitory activity on the tested strains” value [2] was “did not exhibit inhibitory activity”, the “Reduction of the diarrhea rate” value (weanling piglets [3]; groups 10, 11 and 12: colistin sulfate added together with compound 3) was 20% and the “Average daily weight gain” value (weanling piglets [3]; [7]) was 254 g and 248 g and 251 g. For the same compound, the Diarrhea rate (weanling piglets [3]; [7]) was 12% and 9% and 10%, the Feed conversion ratio (weanling piglets [3]; [7]) was 1.435 and 1.427 and 1.453 and the “Average daily weight gain” value (weanling piglets [3]; [8]) was 200 g and 205 g and 211 g. For the same compound, the Diarrhea rate (weanling piglets [3]; [8]) was 36% and 38% and 34%, the Feed conversion ratio (weanling piglets [3]; [8]) was 1.666 and 1.639 and 1.647 and the “In vitro MIC … of compound 3” value (Klebsiella sp. 4125; 5 ppm compound 3) was 32.00 ppm. For the same compound, the “In vitro MIC … of compound 3” value (Klebsiella sp. 4125; 10 ppm compound 3) was 8.00 ppm, the “In vitro MIC … of compound 3” value (Klebsiella sp. 4125; 20 ppm compound 3) was 2.00 ppm and the “In vitro MIC … of compound 3” value (Klebsiella sp. 4125; 40 ppm compound 3) was 1.00 ppm. The “In vitro MIC … of compound 3” value (Klebsiella sp. 4125; 80 ppm compound 3) was 1.00 ppm, the “In vitro MIC of the substance alone” value (Klebsiella sp. 4125; [5]) was over 800 ppm and the “In vitro minimum inhibitory concentration (MIC) of the substance alone” value (E. coli 5F-1; E. coli 5F-1, colistin sulfate-resistant, substance alone, derivatives as hydrochlorides) was over 800 ppm. The “In vitro MIC of colistin sulfate in the presence of the substituted benzylideneguanidine derivative” value (E. coli 5F-1; E. coli 5F-1, resistant, culture comprised 20.0 ppm of the derivative (hydrochloride)) was 1.0 ppm, the “In vitro minimum inhibitory concentration (MIC) of the substance alone” value (E. coli 3Y-9; E. coli 3Y-9, colistin sulfate-susceptible, substance alone, derivatives as hydrochlorides) was over 800 ppm and the “In vitro MIC of colistin sulfate in the presence of the substituted benzylideneguanidine derivative” value (E. coli 3Y-9; E. coli 3Y-9, culture comprised 20.0 ppm of the derivative (hydrochloride), colistin sulfate serially diluted) was 0.50 ppm. For the same compound, the “In vitro minimum inhibitory concentration (MIC) of the substance alone” value (E. coli 3B-24; E. coli 3B-24, colistin sulfate-susceptible, substance alone, derivatives as hydrochlorides) was over 800 ppm, the “In vitro MIC of colistin sulfate in the presence of the substituted benzylideneguanidine derivative” value (E. coli 3B-24; E. coli 3B-24, culture comprised 20.0 ppm of the derivative (hydrochloride), colistin sulfate serially diluted) was 0.50 ppm and the “In vitro minimum inhibitory concentration (MIC) of the substance alone” value (E. coli 5W-7; E. coli 5W-7, colistin sulfate-susceptible, substance alone, derivatives as hydrochlorides) was over 800 ppm. For the same compound, the “In vitro MIC of colistin sulfate in the presence of the substituted benzylideneguanidine derivative” value (E. coli 5W-7; E. coli 5W-7, culture comprised 20.0 ppm of the derivative (hydrochloride), colistin sulfate serially diluted) was 0.25 ppm, the “In vitro MIC … of compound 3” value (P. aeruginosa E543; 5 ppm compound 3) was 32.00 ppm and the “In vitro MIC … of compound 3” value (P. aeruginosa E543; 10 ppm compound 3) was 8.00 ppm. The “In vitro MIC … of compound 3” value (P. aeruginosa E543; 20 ppm compound 3) was 2.00 ppm, the “In vitro MIC … of compound 3” value (P. aeruginosa E543; 40 ppm compound 3) was 0.50 ppm and the “In vitro MIC … of compound 3” value (P. aeruginosa E543; 80 ppm compound 3) was 0.50 ppm. The “In vitro MIC of the substance alone” value (P. aeruginosa E543; [5]) was over 800 ppm, the “Average daily weight gain” value (weanling piglets [4]; [9]) was 215 g and the Diarrhea rate (weanling piglets [4]; [9]) was 30%. For the same compound, the Feed conversion ratio (weanling piglets [4]; [9]) was 1.632, the “Average daily weight gain” value (weanling piglets [4]; [10]) was 226 g and the Diarrhea rate (weanling piglets [4]; [10]) was 26%. The Feed conversion ratio (weanling piglets [4]; [10]) was 1.578, the “Average daily weight gain” value (weanling piglets [4]; [11]) was 237 g and the Diarrhea rate (weanling piglets [4]; [11]) was 20%. For the same compound, the Feed conversion ratio (weanling piglets [4]; [11]) was 1.532, the “Average daily weight gain” value (weanling piglets [4]; [12]) was 248 g and the Diarrhea rate (weanling piglets [4]; [12]) was 16%. For the same compound, the Feed conversion ratio (weanling piglets [4]; [12]) was 1.499, the “Average daily weight gain” value (weanling piglets [4]; [13]) was 255 g and the Diarrhea rate (weanling piglets [4]; [13]) was 6%. For the same compound, the Feed conversion ratio (weanling piglets [4]; [13]) was 1.417, the “Average daily weight gain” value (weanling piglets [4]; [14]) was 259 g and the Diarrhea rate (weanling piglets [4]; [14]) was 3%. The Feed conversion ratio (weanling piglets [4]; [14]) was 1.428, the “Dosage dependence of diarrhea rate and productivity” value (weanling piglets [4]; colistin sulfate added together with compound 3, weanling piglets) was “a higher dosage of compound 3 led to a better effect” and the “Average daily weight gain” value (weanling piglets [4]; [15]) was 228 g. For the same compound, the Diarrhea rate (weanling piglets [4]; [15]) was 29%, the Feed conversion ratio (weanling piglets [4]; [15]) was 1.596 and the “In vitro minimum inhibitory concentration (MIC) of the substance alone” value (E. coli 4D-6; E. coli 4D-6, colistin sulfate-resistant, substance alone, derivatives as hydrochlorides) was over 800 ppm. For the same compound, the “In vitro MIC of colistin sulfate in the presence of the substituted benzylideneguanidine derivative” value (E. coli 4D-6; E. coli 4D-6, resistant, culture comprised 20.0 ppm of the derivative (hydrochloride)) was 2.0 ppm.
